# From US20250368666A1, “INDAZOLE COMPOUNDS” (TYRA BIOSCIENCES, INC., priority 2022, published 2025)
# Assays:
# [1] = test system: RT112/84 cell line (FGFR3-fusion); assay: Cancer cell line cell viability assay (Cell Titer-Glo), 72 hr; type: cell-based; conditions: Homo sapiens, RT112/84, RT112/84 cell line (FGFR3-fusion)
# Method in brief: (§1)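 Following overnight attachment, each line receives compound in triplicate across nine 4-fold dilutions starting at 3 μM, with DMSO backfill for equal solvent. Luminescence after Cell Titer-Glo 2.0 addition gives percent viability versus DMSO control, fitted by 4-parameter logistic for IC50.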
# [2] = test system: KATO-III cell line (FGFR2 amplification); assay: as above; type: cell-based; conditions: Homo sapiens, KATO III
# Method in brief: as §1
# [3] = test system: KG-1 cell line (FGFR 1-fusion); assay: as above; type: cell-based; conditions: Homo sapiens, KG-1, KG-1 cell line (FGFR1-fusion)
# Method in brief: as §1
# [4] = test system: HuH7 cell line (FGF19 amplification); assay: Cancer cell line cell viability assay (Cell Titer-Glo), 120 hr; type: cell-based; conditions: Homo sapiens, Huh-7
# Method in brief: as §1
# FGFR3 = biological target: T1, FGFR3 (Homo sapiens, UniProt P22607); assay: Kinase binding assay (kinase-tagged T7 phage, affinity beads, qPCR), Kd; conditions: read-out: FGFR3 (Kd nM)
# T1 construct: made in house; host or cells: E. coli (BL21-derived), T7 phage
# Method in brief: (§2)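 Phage-tagged kinase capture on small-molecule affinity resin, compound competition, qPCR quantitation; Kd from Levenberg-Marquardt Hill fit.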
# FGFR3 (V555M) = biological target: T2, FGFR3 (V555M) (Homo sapiens, UniProt P22607, V555M); assay: as above; conditions: V555M mutant; read-out: FGFR3 (V555M) (Kd nM)
# T2 construct: made in house; host or cells: E. coli (BL21-derived), T7 phage
# Method in brief: as §2
# FGFR1 = biological target: T3, FGFR1 (Homo sapiens, UniProt P11362); assay: as above; conditions: read-out: FGFR1 (Kd nM)
# T3 construct: made in house; host or cells: E. coli (BL21-derived), T7 phage
# Method in brief: as §2
# FGFR4 = biological target: T4, FGFR4 (Homo sapiens, UniProt P22455); assay: as above; conditions: read-out: FGFR4 (Kd nM)
# T4 construct: made in house; host or cells: E. coli (BL21-derived), T7 phage
# Method in brief: as §2
# FGFR2 = biological target: T5, FGFR2 (Homo sapiens, UniProt P21802); assay: as above; conditions: read-out: FGFR2 (Kd nM)
# T5 construct: made in house; host or cells: E. coli (BL21-derived), T7 phage
# Method in brief: as §2
# T4 sequence (P22455 22-802): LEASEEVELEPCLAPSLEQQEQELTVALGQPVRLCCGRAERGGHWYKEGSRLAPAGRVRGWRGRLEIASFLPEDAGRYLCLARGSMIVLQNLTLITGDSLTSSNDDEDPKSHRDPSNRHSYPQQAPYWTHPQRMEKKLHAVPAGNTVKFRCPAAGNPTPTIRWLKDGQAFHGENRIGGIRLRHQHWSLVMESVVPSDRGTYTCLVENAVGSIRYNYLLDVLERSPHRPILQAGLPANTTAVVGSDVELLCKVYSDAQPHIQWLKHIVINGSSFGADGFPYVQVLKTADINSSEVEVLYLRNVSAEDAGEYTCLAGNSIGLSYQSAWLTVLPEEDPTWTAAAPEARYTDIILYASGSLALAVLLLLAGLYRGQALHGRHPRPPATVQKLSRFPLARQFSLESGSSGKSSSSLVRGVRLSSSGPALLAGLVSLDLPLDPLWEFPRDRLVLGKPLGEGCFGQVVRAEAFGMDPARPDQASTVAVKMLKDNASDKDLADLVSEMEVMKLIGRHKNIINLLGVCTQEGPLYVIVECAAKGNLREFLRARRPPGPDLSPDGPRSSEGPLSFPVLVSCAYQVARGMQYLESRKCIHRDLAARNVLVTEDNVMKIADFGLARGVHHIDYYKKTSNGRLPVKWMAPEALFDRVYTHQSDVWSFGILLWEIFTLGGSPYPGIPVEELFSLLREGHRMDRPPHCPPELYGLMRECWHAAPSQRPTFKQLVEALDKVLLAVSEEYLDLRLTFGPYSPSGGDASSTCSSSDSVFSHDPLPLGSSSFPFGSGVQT
# T3 sequence (P11362 22-822): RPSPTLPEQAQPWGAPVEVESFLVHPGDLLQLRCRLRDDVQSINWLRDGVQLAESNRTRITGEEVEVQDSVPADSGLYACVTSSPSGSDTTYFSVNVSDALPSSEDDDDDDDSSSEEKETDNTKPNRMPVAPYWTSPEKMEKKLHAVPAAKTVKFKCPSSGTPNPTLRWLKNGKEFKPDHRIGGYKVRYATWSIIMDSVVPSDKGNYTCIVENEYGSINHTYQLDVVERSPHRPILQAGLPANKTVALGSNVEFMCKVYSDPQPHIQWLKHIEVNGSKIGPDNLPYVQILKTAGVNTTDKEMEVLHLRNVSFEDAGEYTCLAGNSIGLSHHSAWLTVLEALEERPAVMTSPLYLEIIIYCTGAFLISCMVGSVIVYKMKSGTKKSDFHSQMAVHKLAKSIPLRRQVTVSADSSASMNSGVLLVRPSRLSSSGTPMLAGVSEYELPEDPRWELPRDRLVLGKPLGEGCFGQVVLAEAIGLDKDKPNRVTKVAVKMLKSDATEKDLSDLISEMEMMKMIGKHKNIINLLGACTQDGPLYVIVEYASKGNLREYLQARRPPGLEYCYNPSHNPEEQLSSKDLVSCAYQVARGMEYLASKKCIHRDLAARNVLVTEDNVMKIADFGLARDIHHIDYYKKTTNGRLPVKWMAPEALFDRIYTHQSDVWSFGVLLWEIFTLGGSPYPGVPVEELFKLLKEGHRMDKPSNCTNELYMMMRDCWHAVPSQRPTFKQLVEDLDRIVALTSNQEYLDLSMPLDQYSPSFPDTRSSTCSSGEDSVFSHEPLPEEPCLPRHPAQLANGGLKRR
# T2 sequence (P22607 23-806 V555M): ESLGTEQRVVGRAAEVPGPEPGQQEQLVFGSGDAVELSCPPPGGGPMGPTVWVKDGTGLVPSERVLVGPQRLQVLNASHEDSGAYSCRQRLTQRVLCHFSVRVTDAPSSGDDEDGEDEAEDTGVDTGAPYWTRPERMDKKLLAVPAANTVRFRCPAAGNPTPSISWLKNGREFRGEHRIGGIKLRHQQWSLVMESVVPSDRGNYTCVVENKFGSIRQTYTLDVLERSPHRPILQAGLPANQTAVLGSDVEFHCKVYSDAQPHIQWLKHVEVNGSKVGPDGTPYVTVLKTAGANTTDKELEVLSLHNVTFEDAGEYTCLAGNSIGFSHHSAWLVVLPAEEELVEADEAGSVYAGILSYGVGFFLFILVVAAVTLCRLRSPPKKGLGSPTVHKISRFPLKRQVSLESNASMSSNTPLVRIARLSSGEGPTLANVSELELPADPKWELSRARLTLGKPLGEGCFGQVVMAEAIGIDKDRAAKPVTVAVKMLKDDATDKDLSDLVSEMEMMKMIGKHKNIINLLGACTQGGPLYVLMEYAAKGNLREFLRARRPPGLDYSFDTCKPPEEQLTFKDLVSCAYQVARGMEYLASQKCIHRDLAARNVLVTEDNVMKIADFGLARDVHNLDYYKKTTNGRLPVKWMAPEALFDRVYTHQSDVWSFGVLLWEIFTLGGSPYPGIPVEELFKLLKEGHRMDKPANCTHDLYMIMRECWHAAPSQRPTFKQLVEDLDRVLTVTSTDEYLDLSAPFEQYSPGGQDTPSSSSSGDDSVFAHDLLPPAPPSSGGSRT
# T5 sequence (P21802 22-821): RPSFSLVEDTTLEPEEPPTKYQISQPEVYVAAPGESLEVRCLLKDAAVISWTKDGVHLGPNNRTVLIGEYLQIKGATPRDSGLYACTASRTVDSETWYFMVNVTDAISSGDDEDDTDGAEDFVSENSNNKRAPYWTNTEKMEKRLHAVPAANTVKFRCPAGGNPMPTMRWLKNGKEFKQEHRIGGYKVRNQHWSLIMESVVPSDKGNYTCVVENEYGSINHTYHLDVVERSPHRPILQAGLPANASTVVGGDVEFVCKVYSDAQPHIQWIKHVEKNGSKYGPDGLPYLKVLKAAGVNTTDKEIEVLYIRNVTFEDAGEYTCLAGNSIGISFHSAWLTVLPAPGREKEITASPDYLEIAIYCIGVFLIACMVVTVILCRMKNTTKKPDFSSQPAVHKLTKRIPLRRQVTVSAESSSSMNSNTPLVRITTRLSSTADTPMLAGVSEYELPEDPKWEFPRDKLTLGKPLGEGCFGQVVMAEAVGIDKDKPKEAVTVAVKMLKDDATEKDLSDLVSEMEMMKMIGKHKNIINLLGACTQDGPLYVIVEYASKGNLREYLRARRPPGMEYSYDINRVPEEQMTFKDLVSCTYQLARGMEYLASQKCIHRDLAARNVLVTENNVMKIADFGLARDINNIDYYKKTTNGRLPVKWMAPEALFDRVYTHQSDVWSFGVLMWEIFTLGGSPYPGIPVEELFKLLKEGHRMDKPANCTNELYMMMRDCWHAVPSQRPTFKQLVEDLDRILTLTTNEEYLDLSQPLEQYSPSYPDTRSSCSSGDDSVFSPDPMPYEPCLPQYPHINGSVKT
# T1 sequence (P22607 23-806): as the sequence (P22607 23-806 V555M) above, with M533V counted along it
smiles,measurement,setting,value
"COc1cc2[nH]nc(-c3cnc(N4CC(C)(NC(C)C)C4)nc3)c2cc1O[C@H](C)c1c(Cl)cncc1Cl [Example 82, (R)-1-(5-(5-(1-(3,5-dichloropyridin-4-yl)ethoxy)-6-methoxy-1H-indazol-3-yl)pyrimidin-2-yl)-N-isopropyl-3-methylazetidin-3-amine]",IC50,[1],0.0001 to 0.05 µM
same,IC50,[2],0.0001 to 0.05 µM
same,IC50,[3],0.0001 to 0.05 µM
same,IC50,[4],0.0001 to 0.05 µM
same,Kd,FGFR3,1 to 50 nM
same,Kd,FGFR3 (V555M),1 to 50 nM
same,Kd,FGFR1,1 to 50 nM
same,Kd,FGFR4,1 to 50 nM
same,Kd,FGFR2,1 to 50 nM
"C[C@@H](Oc1ccc2[nH]nc(-c3cnc(N4CC(C)(NCCO)C4)c(C#N)c3)c2c1)c1c(Cl)cncc1Cl [Example 52, 5-[5-[(1R)-1-(3,5-dichloro-4-pyridyl)ethoxy]-1H-indazol-3-yl]-2-[3-(2-hydroxyethylamino)-3-methyl-azetidin-1-yl]pyridine-3-carbonitrile]",IC50,[1],0.05 to 0.2 µM
same,IC50,[2],0.05 to 0.2 µM
same,IC50,[3],0.2 to 1 µM
same,IC50,[4],0.0001 to 0.05 µM
same,Kd,FGFR3,1 to 50 nM
same,Kd,FGFR3 (V555M),1 to 50 nM
same,Kd,FGFR1,1 to 50 nM
same,Kd,FGFR4,1 to 50 nM
same,Kd,FGFR2,1 to 50 nM
"C[C@@H](Oc1ccc2[nH]nc(-c3cnc(N4CC(C)(NCC(C)(C)O)C4)c(C#N)c3)c2c1)c1c(Cl)cncc1Cl [Example 54, (R)-5-(5-(1-(3,5-dichloropyridin-4-yl)ethoxy)-1H-indazol-3-yl)-2-(3-((2-hydroxy-2-methylpropyl)amino)-3-methylazetidin-1-yl)nicotinonitrile]",IC50,[1],0.05 to 0.2 µM
same,IC50,[2],0.2 to 1 µM
same,IC50,[3],0.2 to 1 µM
same,IC50,[4],0.0001 to 0.05 µM
same,Kd,FGFR3,1 to 50 nM
same,Kd,FGFR3 (V555M),1 to 50 nM
same,Kd,FGFR1,1 to 50 nM
same,Kd,FGFR4,1 to 50 nM
same,Kd,FGFR2,1 to 50 nM
"C[C@@H](Oc1ccc2[nH]nc(-c3cnc(N4CC(C)(N5CCS(=O)(=O)CC5)C4)c(C#N)c3)c2c1)c1c(Cl)cncc1Cl [Example 321, (R)-5-(5-(1-(3,5-dichloropyridin-4-yl)ethoxy)-1H-indazol-3-yl)-2-(3-(1,1-dioxidothio-morpholino)-3-methylazetidin-1-yl)nicotinonitrile]",IC50,[1],0.05 to 0.2 µM
same,IC50,[2],0.2 to 1 µM
same,IC50,[3],0.2 to 1 µM
same,IC50,[4],0.0001 to 0.05 µM
same,Kd,FGFR3,1 to 50 nM
same,Kd,FGFR3 (V555M),1 to 50 nM
same,Kd,FGFR1,1 to 50 nM
same,Kd,FGFR4,1 to 50 nM
same,Kd,FGFR2,1 to 50 nM
"COc1cc2[nH]nc(-c3cnc(N4CC(C)(N5CC(C)(OC)C5)C4)c(C#N)c3)c2cc1O[C@H](C)c1c(Cl)cncc1Cl [Example 101, (R)-5-(5-(1-(3,5-dichloropyridin-4-yl)ethoxy)-6-methoxy-1H-indazol-3-yl)-2-(3-methoxy-3,3′-dimethyl-[1,3′-biazetidin]-1′-yl)nicotinonitrile]",IC50,[1],0.0001 to 0.05 µM
same,IC50,[2],0.0001 to 0.05 µM
same,IC50,[3],0.05 to 0.2 µM
same,IC50,[4],0.0001 to 0.05 µM
same,Kd,FGFR3,1 to 50 nM
same,Kd,FGFR3 (V555M),1 to 50 nM
same,Kd,FGFR1,1 to 50 nM
same,Kd,FGFR4,1 to 50 nM
same,Kd,FGFR2,1 to 50 nM
"Cc1ncc(Cl)c([C@@H](C)Oc2ccc3[nH]nc(-c4cnc(N5CC(C)(NC6CCC6)C5)c(C#N)c4)c3c2)c1Cl [Example 19, 2-[3-(cyclobutylamino)-3-methyl-azetidin-1-yl]-5-[5-[(1R)-1-(3,5-dichloro-2-methyl-4-pyridyl)ethoxy]-1H-indazol-3-yl]pyridine-3-carbonitrile]",IC50,[1],0.2 to 1 µM
same,IC50,[2],> 1 µM
same,IC50,[3],0.2 to 1 µM
same,IC50,[4],0.0001 to 0.05 µM
same,Kd,FGFR3,1 to 50 nM
same,Kd,FGFR3 (V555M),1 to 50 nM
same,Kd,FGFR1,50 to 300 nM
same,Kd,FGFR4,1 to 50 nM
same,Kd,FGFR2,300 to 1000 nM
"COc1cc2[nH]nc(-c3cnc(N4CC(C)(N[C@H]5CCOC5)C4)c(C#N)c3)c2cc1O[C@H](C)c1c(Cl)cncc1Cl [Example 24, 5-(5-((R)-1-(3,5-dichloropyridin-4-yl)ethoxy)-6-methoxy-1H-indazol-3-yl)-2-(3-methyl-3-(((S)-tetrahydrofuran-3-yl)amino)azetidin-1-yl)nicotinonitrile]",IC50,[1],0.0001 to 0.05 µM
same,IC50,[2],0.05 to 0.2 µM
same,IC50,[3],0.05 to 0.2 µM
same,IC50,[4],0.0001 to 0.05 µM
same,Kd,FGFR3,1 to 50 nM
same,Kd,FGFR3 (V555M),1 to 50 nM
same,Kd,FGFR1,1 to 50 nM
same,Kd,FGFR4,1 to 50 nM
same,Kd,FGFR2,1 to 50 nM
"CC(C)NC1(C)CN(c2ncc(-c3n[nH]c4ccc(O[C@H](C)c5c(Cl)cncc5Cl)cc34)cc2C#N)C1 [Example 48, (R)-5-(5-(1-(3,5-dichloropyridin-4-yl)ethoxy)-1H-indazol-3-yl)-2-(3-(isopropylamino)-3-methylazetidin-1-yl)nicotinonitrile]",IC50,[1],0.05 to 0.2 µM
same,IC50,[2],0.2 to 1 µM
same,IC50,[3],0.2 to 1 µM
same,IC50,[4],0.0001 to 0.05 µM
same,Kd,FGFR3,1 to 50 nM
same,Kd,FGFR3 (V555M),1 to 50 nM
same,Kd,FGFR1,1 to 50 nM
same,Kd,FGFR4,1 to 50 nM
same,Kd,FGFR2,1 to 50 nM
"C[C@@H](Oc1ccc2[nH]nc(-c3cnc(N4CC(C)(N[C@@H]5CCOC5)C4)c(C#N)c3)c2c1)c1c(Cl)cncc1Cl [Example 33, 5-(5-((R)-1-(3,5-dichloropyridin-4-yl)ethoxy)-1H-indazol-3-yl)-2-(3-methyl-3-(((R)-tetrahydrofuran-3-yl)amino)azetidin-1-yl)nicotinonitrile]",IC50,[1],0.05 to 0.2 µM
same,IC50,[2],0.05 to 0.2 µM
same,IC50,[3],0.2 to 1 µM
same,IC50,[4],0.0001 to 0.05 µM
same,Kd,FGFR3,1 to 50 nM
same,Kd,FGFR3 (V555M),1 to 50 nM
same,Kd,FGFR1,50 to 300 nM
same,Kd,FGFR4,1 to 50 nM
same,Kd,FGFR2,1 to 50 nM
"COc1cc2[nH]nc(-c3cnc(N4CC(C)(N[C@@H]5CCOC5)C4)c(C#N)c3)c2cc1O[C@H](C)c1c(Cl)cncc1Cl [Example 25, 5-(5-((R)-1-(3,5-dichloropyridin-4-yl)ethoxy)-6-methoxy-1H-indazol-3-yl)-2-(3-methyl-3-(((R)-tetrahydrofuran-3-yl)amino)azetidin-1-yl)nicotinonitrile]",IC50,[1],0.0001 to 0.05 µM
same,IC50,[2],0.05 to 0.2 µM
same,IC50,[3],0.05 to 0.2 µM
same,IC50,[4],0.0001 to 0.05 µM
same,Kd,FGFR3,1 to 50 nM
same,Kd,FGFR3 (V555M),1 to 50 nM
same,Kd,FGFR1,1 to 50 nM
same,Kd,FGFR4,1 to 50 nM
same,Kd,FGFR2,1 to 50 nM
"C[C@@H](Oc1ccc2[nH]nc(-c3cnc(N4CC(C)(CN5CCOCC5)C4)c(C#N)c3)c2c1)c1c(Cl)cncc1Cl [Example 122, (R)-5-(5-(1-(3,5-dichloropyridin-4-yl)ethoxy)-1H-indazol-3-yl)-2-(3-methyl-3-(morpholinomethyl)aze-tidin-1-yl)nicotinonitrile]",IC50,[1],0.05 to 0.2 µM
same,IC50,[2],0.2 to 1 µM
same,IC50,[3],0.2 to 1 µM
same,IC50,[4],0.05 to 0.2 µM
same,Kd,FGFR3,1 to 50 nM
same,Kd,FGFR3 (V555M),1 to 50 nM
same,Kd,FGFR1,50 to 300 nM
same,Kd,FGFR4,1 to 50 nM
same,Kd,FGFR2,50 to 300 nM
"COC1(C)CN(C2(C)CN(c3ncc(-c4n[nH]c5ccc(O[C@H](C)c6c(Cl)cncc6Cl)cc45)cc3C#N)C2)C1 [Example 102, (R)-5-(5-(1-(3,5-dichloropyridin-4-yl)ethoxy)-1H-indazol-3-yl)-2-(3-methoxy-3,3′-dimethyl-[1,3′-biazetidin]-1′-yl)nicotinonitrile]",IC50,[1],0.05 to 0.2 µM
same,IC50,[2],0.2 to 1 µM
same,IC50,[3],0.2 to 1 µM
same,IC50,[4],0.0001 to 0.05 µM
same,Kd,FGFR3,1 to 50 nM
same,Kd,FGFR3 (V555M),1 to 50 nM
same,Kd,FGFR1,1 to 50 nM
same,Kd,FGFR4,1 to 50 nM
same,Kd,FGFR2,1 to 50 nM
"COc1cc2[nH]nc(-c3cnc(N4CC(C)(CN(C)C)C4)c(C#N)c3)c2cc1O[C@H](C)c1c(Cl)cncc1Cl [Example 49, (R)-5-(5-(1-(3,5-dichloropyridin-4-yl)ethoxy)-6-methoxy-1H-indazol-3-yl)-2-(3-((dimethylamino)methyl)-3-methylazetidin-1-yl)nicotinonitrile]",IC50,[1],0.0001 to 0.05 µM
same,IC50,[2],0.0001 to 0.05 µM
same,IC50,[3],0.0001 to 0.05 µM
same,IC50,[4],0.0001 to 0.05 µM
same,Kd,FGFR3,1 to 50 nM
same,Kd,FGFR3 (V555M),1 to 50 nM
same,Kd,FGFR1,1 to 50 nM
same,Kd,FGFR4,1 to 50 nM
same,Kd,FGFR2,1 to 50 nM
"C[C@@H](Oc1ccc2[nH]nc(-c3cnc(N4CC(C)(N5CCC5)C4)c(C#N)c3)c2c1)c1c(Cl)cncc1Cl [Example 28, (R)-5-(5-(1-(3,5-dichloropyridin-4-yl)ethoxy)-1H-indazol-3-yl)-2-(3′-methyl-[1,3′-biazetidin]-1′-yl)nicotinonitrile]",IC50,[1],0.0001 to 0.05 µM
same,IC50,[2],0.05 to 0.2 µM
same,IC50,[3],0.05 to 0.2 µM
same,IC50,[4],0.0001 to 0.05 µM
same,Kd,FGFR3,1 to 50 nM
same,Kd,FGFR3 (V555M),1 to 50 nM
same,Kd,FGFR1,1 to 50 nM
same,Kd,FGFR4,1 to 50 nM
same,Kd,FGFR2,1 to 50 nM
"COc1cc2[nH]nc(-c3cnc(N4CC(C)(N5CCC5)C4)c(C#N)c3)c2cc1O[C@H](C)c1c(Cl)cncc1Cl [Example 26, (R)-5-(5-(1-(3,5-dichloropyridin-4-yl)ethoxy)-6-methoxy-1H-indazol-3-yl)-2-(3′-methyl-[1,3′-biazetidin]-1′-yl)nicotinonitrile]",IC50,[1],0.0001 to 0.05 µM
same,IC50,[2],0.05 to 0.2 µM
same,IC50,[3],0.0001 to 0.05 µM
same,IC50,[4],0.0001 to 0.05 µM
same,Kd,FGFR3,1 to 50 nM
same,Kd,FGFR3 (V555M),1 to 50 nM
same,Kd,FGFR1,1 to 50 nM
same,Kd,FGFR4,1 to 50 nM
same,Kd,FGFR2,1 to 50 nM
